From ChEMBL document CHEMBL1143759, “Losartan and its interaction with copper(II): biological effects” (2007)

Columns and labels:
[1] = Inhibition of cell proliferation of rat UMR106 cells at 500 uM; format: functional; set-up: scale not given: the % may be the effect or the level left
[2] = Inhibition of cell proliferation of mouse MC3T3E1 cells at 500 uM; format: functional, MC3T3-E1; set-up: scale not given: the % may be the effect or the level left

CCCCc1nc(Cl)c(CO)n1Cc1ccc(-c2ccccc2-c2nnn[n-]2)cc1.[K+] [LOSARTAN POTASSIUM]
Activity [1]: 10%
Activity [2]: 10%
